Laboratory results published in PubChem BioAssay (NCI).
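In this assay, cells in 96-well plates receive the compound at five concentrations for 48 hours. Endpoints are linearly interpolated between the surrounding concentrations. TGI denotes the concentration required for complete inhibition of growth.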

How the values were obtained:
Assay in all cases: NCI tumour cell line growth inhibition, 48 h
P388 leukemia = test system: P388 leukemia
XF 498 CNS = test system: XF 498 CNS
SNB-78 CNS = test system: SNB-78 CNS
DMS 114 small cell lung = test system: DMS 114 small cell lung
P388/ADR leukemia = test system: P388/ADR leukemia
DMS 273 small cell lung = test system: DMS 273 small cell lung
SN12K1 renal = test system: SN12K1 renal
LXFL 529 NSCLC = test system: LXFL 529 NSCLC

Measured: TGI

Nc1ccc2cc(S(=O)(=O)O)cc(O)c2c1N=Nc1ccc(NC(=O)Nc2ccc(N=Nc3c(N)ccc4cc(S(=O)(=O)O)cc(O)c34)c(S(=O)(=O)O)c2)cc1S(=O)(=O)O
not listed: LXFL 529 NSCLC
> 100 µM: all other assays above

COc1cc(C2C(Cl)C(=O)N2NC(=O)c2ccc(NC(C)=O)cc2)cc(Br)c1O (stereo not drawn)
> 100 µM: LXFL 529 NSCLC
